Experimental data taken from ChEMBL document CHEMBL1139200, “Structure-activity relationships, and drug metabolism and pharmacokinetic properties for indazole piperazine and indazole piperidine inhibitors of ROCK-II” (Bioorg Med Chem Lett, 2007).
Each block holds one compound with its values, some of them ahead of it.

Legend:
[1] = biological target: Rho-associated protein kinase 2 (Homo sapiens, UniProt O75116); assay: Inhibition of ROCK2
[2] = biological target: Cytochrome P450 3A4 (Homo sapiens, UniProt P08684)
Chain of Cytochrome P450 3A4 (P08684 whole entry): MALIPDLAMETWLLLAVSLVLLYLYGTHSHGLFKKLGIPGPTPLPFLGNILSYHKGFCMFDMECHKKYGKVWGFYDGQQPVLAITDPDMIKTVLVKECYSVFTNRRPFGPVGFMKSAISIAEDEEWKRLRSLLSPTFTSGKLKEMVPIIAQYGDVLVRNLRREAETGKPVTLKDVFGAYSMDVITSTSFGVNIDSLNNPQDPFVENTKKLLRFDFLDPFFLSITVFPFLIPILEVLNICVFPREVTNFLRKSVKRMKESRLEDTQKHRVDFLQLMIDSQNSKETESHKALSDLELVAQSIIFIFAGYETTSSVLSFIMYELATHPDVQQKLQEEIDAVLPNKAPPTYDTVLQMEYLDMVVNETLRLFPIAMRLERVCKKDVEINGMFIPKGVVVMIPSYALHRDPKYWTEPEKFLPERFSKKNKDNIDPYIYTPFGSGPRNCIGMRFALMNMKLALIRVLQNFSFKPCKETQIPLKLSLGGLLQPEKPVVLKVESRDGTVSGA

[3] = Metabolic stability in human liver microsomes
[4] = Half life in rat at 1 mg/kg, iv; type: ADME, organism-based; parameters: dose 1 mg/kg, route intravenous; settings: in vivo
[5] = Clearance in rat at 1 mg/kg, iv; type: ADME, organism-based; parameters: dose 1 mg/kg, route intravenous; settings: in vivo
[6] = Volume of distribution in rat at 1 mg/kg, iv; type: ADME, organism-based; parameters: dose 1 mg/kg, route intravenous; settings: in vivo
[7] = AUC (0 to infinity) in rat at 1 mg/kg, iv; type: ADME, organism-based; parameters: time infinity, dose 1 mg/kg, route intravenous; settings: plasma
[8] = AUC (0 to infinity) in rat at 2 mg/kg, po; type: ADME, organism-based; parameters: time infinity, dose 2 mg/kg, route oral; settings: plasma
[9] = Cmax in rat at 2 mg/kg, po; type: ADME, organism-based; parameters: dose 2 mg/kg, route oral; settings: in vivo
[10] = Tmax in rat at 2 mg/kg, po; type: ADME, organism-based; parameters: dose 2 mg/kg, route oral; settings: in vivo
[11] = Oral bioavailability in rat at 2 mg/kg; type: ADME, organism-based; settings: in vivo
[12] = Inhibition of MRCK; parameters: species or system Homo sapiens
[13] = species: Homo sapiens; assay: Selectivity for ROCK2 over MRCK
[14] = Inhibition of PKA; parameters: species or system Homo sapiens
[15] = species: Homo sapiens; assay: Selectivity for ROCK2 over PKA
[16] = test system: N2a; assay: Inhibition of LPA-induced neurite retraction in mouse N2A cells; type: functional, cell-based

Chain of Rho-associated protein kinase 2 (O75116 whole entry): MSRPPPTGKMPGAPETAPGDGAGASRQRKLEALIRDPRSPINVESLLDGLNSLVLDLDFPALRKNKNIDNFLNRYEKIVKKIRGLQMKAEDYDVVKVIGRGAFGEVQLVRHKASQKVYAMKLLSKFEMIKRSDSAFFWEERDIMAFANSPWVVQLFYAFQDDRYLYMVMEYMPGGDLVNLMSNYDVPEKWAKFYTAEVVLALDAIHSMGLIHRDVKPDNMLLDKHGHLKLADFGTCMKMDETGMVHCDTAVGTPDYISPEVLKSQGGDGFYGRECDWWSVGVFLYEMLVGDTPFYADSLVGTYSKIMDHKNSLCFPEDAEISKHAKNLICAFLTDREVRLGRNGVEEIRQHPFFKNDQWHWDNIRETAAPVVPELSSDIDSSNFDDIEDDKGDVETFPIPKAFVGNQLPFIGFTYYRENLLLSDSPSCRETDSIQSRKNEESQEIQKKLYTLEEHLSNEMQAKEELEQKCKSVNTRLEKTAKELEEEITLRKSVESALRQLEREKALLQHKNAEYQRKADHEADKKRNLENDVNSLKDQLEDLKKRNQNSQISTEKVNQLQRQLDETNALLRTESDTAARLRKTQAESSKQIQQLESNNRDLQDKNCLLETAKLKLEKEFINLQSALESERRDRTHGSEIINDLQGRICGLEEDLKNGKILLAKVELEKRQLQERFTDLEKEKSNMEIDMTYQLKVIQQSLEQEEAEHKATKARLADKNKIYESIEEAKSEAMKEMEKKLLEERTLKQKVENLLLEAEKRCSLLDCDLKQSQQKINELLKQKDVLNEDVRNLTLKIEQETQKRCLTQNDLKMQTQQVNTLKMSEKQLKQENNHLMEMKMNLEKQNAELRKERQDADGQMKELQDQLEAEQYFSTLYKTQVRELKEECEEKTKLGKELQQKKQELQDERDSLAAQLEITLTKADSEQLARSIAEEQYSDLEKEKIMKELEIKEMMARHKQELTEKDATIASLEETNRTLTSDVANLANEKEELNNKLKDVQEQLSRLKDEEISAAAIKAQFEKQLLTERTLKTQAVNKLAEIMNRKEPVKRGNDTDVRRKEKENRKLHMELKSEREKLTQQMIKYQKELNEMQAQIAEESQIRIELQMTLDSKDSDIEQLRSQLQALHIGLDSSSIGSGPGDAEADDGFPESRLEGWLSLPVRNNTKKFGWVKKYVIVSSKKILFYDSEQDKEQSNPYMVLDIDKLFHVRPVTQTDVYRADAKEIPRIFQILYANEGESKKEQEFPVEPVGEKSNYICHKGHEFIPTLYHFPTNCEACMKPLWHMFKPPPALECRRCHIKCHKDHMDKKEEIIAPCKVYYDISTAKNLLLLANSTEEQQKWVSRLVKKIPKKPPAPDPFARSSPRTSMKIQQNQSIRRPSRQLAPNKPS

IC50 [1]: 3900 nM
IC50 [2]: 10000 nM
SMILES: CC(C)[C@@H](O)C(=O)N1CCN(c2ccc3[nH]ncc3c2)CC1

IC50 [1]: 770 nM
IC50 [2]: 1000 nM
SMILES: O=C([C@H](O)c1ccccc1)N1CCC(Nc2ccc3[nH]ncc3c2)CC1

IC50 [1]: 1000 nM
IC50 [2]: 3500 nM
SMILES: O=C([C@H](O)c1cccc(Cl)c1)N1CCN(c2ccc3[nH]ncc3c2)CC1

IC50 [1]: 470 nM
IC50 [2]: 1000 nM
SMILES: N[C@@H](Cc1ccccc1)C(=O)N1CCC(Nc2ccc3[nH]ncc3c2)CC1

IC50 [1]: 190 nM
IC50 [2]: 3000 nM
SMILES: O=C(C(O)c1ccc(Cl)cc1)N1CCN(c2ccc3[nH]ncc3c2)CC1 (configuration not stated)

IC50 [1]: 350 nM
IC50 [2]: 2000 nM
SMILES: O=C([C@@H](O)c1cccc(Cl)c1)N1CCC(Nc2ccc3[nH]ncc3c2)CC1

IC50 [1]: 6000 nM
IC50 [2]: > 10000 nM
SMILES: C[C@H](N)C(=O)N1CCC(Nc2ccc3[nH]ncc3c2)CC1

IC50 [1]: 380 nM
IC50 [2]: 7000 nM
SMILES: N[C@H](Cc1ccccc1)C(=O)N1CCN(c2ccc3[nH]ncc3c2)CC1

IC50 [1]: 760 nM
IC50 [2]: 250 nM
SMILES: NC(C(=O)N1CCN(c2ccc3[nH]ncc3c2)CC1)c1cccc(Cl)c1 (configuration not stated)

IC50 [1]: 150 nM
IC50 [2]: 170 nM
SMILES: NC(C(=O)N1CCC(Nc2ccc3[nH]ncc3c2)CC1)c1cccc(Cl)c1 (configuration not stated)

Continued, compound first:

SMILES: N[C@H](C(=O)N1CCC(Nc2ccc3[nH]ncc3c2)CC1)c1ccccc1
IC50 [1]: 830 nM

SMILES: NC(C(=O)N1CCC(Nc2ccc3[nH]ncc3c2)CC1)c1ccc(Br)cc1 (configuration not stated)
IC50 [1]: 13 nM
half-life ([3]; microsomes): 10.8 min
half-life [4]: 36 min
clearance [5]: 41.4 mL/min/kg
Vd [6]: 1.7 L/kg
AUC(0-inf) [7]: 0.95 µM·h
AUC(0-inf) [8]: 0.15 µM·h
Cmax [9]: 100 nM
Tmax [10]: 42 min
bioavailability [11]: 8%
IC50 [12]: 7200 nM
Ratio IC50 [13]: 554
IC50 [14]: 940 nM
Ratio IC50 [15]: 72
IC50 [16]: 5700 nM
IC50 [2]: 490 nM

SMILES: O=C(C(O)c1ccc(Br)cc1)N1CCN(c2ccc3[nH]ncc3c2)CC1 (configuration not stated)
IC50 [1]: 100 nM
half-life [4]: 42 min
clearance [5]: 109 mL/min/kg
Vd [6]: 3.7 L/kg
AUC(0-inf) [7]: 0.38 µM·h
AUC(0-inf) [8]: 0.21 µM·h
Cmax [9]: 100 nM
Tmax [10]: 24 min
bioavailability [11]: 28%
IC50 [12]: > 20000 nM
IC50 [14]: 2700 nM
IC50 [16]: 2400 nM

SMILES: O=C(C(O)c1ccc(Br)cc1)N1CCC(Nc2ccc3[nH]ncc3c2)CC1 (configuration not stated)
IC50 [1]: 80 nM
half-life ([3]; liver microsomes): 36.3 min
half-life [4]: 66 min
clearance [5]: 30.3 mL/min/kg
Vd [6]: 1.9 L/kg
AUC(0-inf) [7]: 1.35 µM·h
AUC(0-inf) [8]: 0.71 µM·h
Cmax [9]: 200 nM
Tmax [10]: 24 min
bioavailability [11]: 26%
IC50 [12]: > 20000 nM
Ratio IC50 [13]: > 250
IC50 [14]: 4200 nM
Ratio IC50 [15]: 53
IC50 [16]: 3500 nM
IC50 [2]: 3500 nM

SMILES: O=C([C@@H](O)c1ccccc1Cl)N1CCC(Nc2ccc3[nH]ncc3c2)CC1
IC50 [1]: 1700 nM
IC50 [2]: 4000 nM

SMILES: NC(C(=O)N1CCN(c2ccc3[nH]ncc3c2)CC1)c1ccc(Br)cc1 (configuration not stated)
IC50 [1]: 90 nM
half-life ([3]; liver microsomes): 9.8 min
half-life [4]: 36 min
clearance [5]: 75.5 mL/min/kg
Vd [6]: 2.7 L/kg
AUC(0-inf) [7]: 0.54 µM·h
AUC(0-inf) [8]: 0.09 µM·h
Cmax [9]: 400 nM
Tmax [10]: 24 min
bioavailability [11]: 8%
IC50 [12]: > 20000 nM
Ratio IC50 [13]: > 222
IC50 [14]: 450 nM
Ratio IC50 [15]: 5
IC50 [16]: > 15000 nM
IC50 [2]: 410 nM

SMILES: N[C@@H](C(=O)N1CCN(c2ccc3[nH]ncc3c2)CC1)c1ccccc1
IC50 [1]: 1300 nM
IC50 [2]: 470 nM

SMILES: O=C([C@H](O)c1ccccc1)N1CCN(c2ccc3[nH]ncc3c2)CC1
IC50 [1]: 800 nM
IC50 [2]: 10000 nM

SMILES: O=C([C@H](O)c1ccccc1Cl)N1CCN(c2ccc3[nH]ncc3c2)CC1
IC50 [1]: 1200 nM
IC50 [2]: 8000 nM

SMILES: C[C@H](O)C(=O)N1CCC(Nc2ccc3[nH]ncc3c2)CC1
IC50 [1]: 10000 nM
IC50 [2]: 1000 nM

SMILES: O=C([C@@H]1Cc2ccccc2CN1)N1CCN(c2ccc3[nH]ncc3c2)CC1
IC50 [1]: 5300 nM
IC50 [2]: 10000 nM

SMILES: C[C@@H](N)C(=O)N1CCN(c2ccc3[nH]ncc3c2)CC1
IC50 [1]: > 10000 nM
IC50 [2]: 10000 nM

SMILES: NC(C(=O)N1CCN(c2ccc3[nH]ncc3c2)CC1)c1ccc(Cl)cc1 (configuration not stated)
IC50 [1]: 190 nM
IC50 [2]: 530 nM
